We go through two molecules from patent US9518974B2, “Sensor system for detecting organophosphorus residues by inducing coagulation of gold nanoparticles” (priority 2014, dated 2016).

The target in the assay is EGFP (Aequorea victoria, UniProt P42212, F64L/H231L/S65T). The assay is described as follows: Influence of organophosphorus pesticide on activity (fluorescence) of EGFP. Particulars: pesticide 10 ppb to 10 ppm, excitation 480 nm, emission 510 nm, control 10% methanol.

With `CCOP(=O)(Sc1ccccc1)Sc1ccccc1` [edifenphos], the “intensity of fluorescence of EGFP” value was “the same results”.
The value for `CC(C)OP(=O)(OC(C)C)SCc1ccccc1` [iprobenfos] was “the same results”.
